Experimental data as given in patent US10774076B2, “Benzazole compounds and methods for making and using the compounds” (Rigel Pharmaceuticals, Inc., priority 2015, dated 2020).

How the values were obtained:
IL23-p19 = assay: Compound screening using DC cells: LPS-induced IL-23 (p19/p40) ELISA in IFNγ-primed dendritic cells differentiated from human PBMC; type: cell-based; conditions: Dendritic cell, human PBMC-derived dendritic cells, LPS 1 μg/ml, 18 hours, 10 pt
Protocol: Compound Screening Using DC Cells
Human PBMC cells (400 million) obtained from the vendor were transferred into a T-175 flask containing 15 ml RPMI media (10% FBS) and incubate for 2 hours at 37° C. After 2 hours, the media including floating cells was aspirated out carefully and 12 ml of fresh RPMI media (10% FBS) containing GMCSF (100 ng/ml) and IL4 (20 ng/ml) was added, and the flask was kept in a 37° C. incubator for 7 days.
After 3 days, fresh GMCSF (100 ng/ml) and IL4 (20 ng/ml) were added to the flask and the incubation continued. After 7 days, the fully differentiated cells were harvested by spinning down (1200 rpm/5 min) and aspirating the media. The cells were suspended in fresh RPMI media (10% FBS) containing 50 ng/ml IFNγ (1000 U/ml) and then plated (50K/well in 100 μl) onto a white clear bottom 96 well plate and left in a 37° C. incubator for 24 hours.
After 24 hours incubation, 100 μl of RPMI media was added containing 2× concentrated test compound per well to the above cell-culture media (final concentration becomes 1×) and the plates were pre-incubated for 1 hour at 37° C. before stimulating with LPS.
After 1 hour compound pre-incubation, 10 μl per well of 20× concentrated LPS solution in RPMI media was added to give a final concentration of 1 μg/ml. The mixture was shaken and incubated the plates at 37° C. for an additional 18 hours.
155 μl of the supernatant was harvested from each well carefully (without the tip touching the bottom of the well) and to the remaining 50 μl/well of the cell culture plate was added 50 μl of Cell Titer Glo reagent. The mixture was incubated for 1-2 minutes on a shaker and the plate was read for luminescence intensity to determine the compound cytotoxicity. The cell culture supernatant collected above was used to carry out IL23 ELISA (65 μl—Supernatant) and IL10 ELISA (90 μl—Supernatant) as described below.
Human IL-23 (p19/p40) ELISA Protocol (e-Biosciences)
To 10.5 ml PBS add 50 μl of anti-IL23 (p19) was added capture antibody (2.5 μg/ml). The mixture was mixed well and 100 μl of the coating solution was added to each well of the 96 well white plates from Pierce. The wells were covered and incubated overnight at 4° C.
The anti-IL23 (p19)-antibody-coated plates were washed 2× using TBST (use plate washer) and blocked using 200 μl of 0.5% Casein for 1.5-2 hours at room temperature with shaking.
The plates were washed 2× using TBST and the supernatant was transferred (65 μl/well) to the above pre-blocked/IL23(p19)-antibody-coated 96 well plate, and incubated at room temperature for 1.5 hours with shaking.
The plates were washed 4× using TBST (plate washer) and 100 μl/well detection antibody solution prepared from 2 μl of biotin labeled anti-IL-12 (p40/p70) antibody in 11 ml 1% BSA/PBS solution (I-5000 dilution) was added. The plates were incubated for 1 hour with shaking at Room temperature.
Again, the plates were washed 4× with TBST and 100 μl of HRP labeled Streptavidin (R&D Systems) solution (10 μl/10 ml 1% BSA solution) was added, and the plates were incubated at room temperature for another 45 minutes with shaking.
After 45 minutes, the plates were washed with TBST 4× and 100 ul/well Super Signal ELISA Pico Chemiluminescent Substrate from Pierce (3.5 ml A+3.5 ml B+3.5 ml MQ water) was added. The plates were shaken for 1-2 minutes then read on a plate reader.

IL23p19 = assay: LPS Induced IL23p19 in THP-1 Cells (with IFNγ Primed) Assay; type: cell-based; conditions: Homo sapiens, IFNγ primed (50 ng/mL), LPS 1 ug/mL, 18 hours, 10 pt, read-out: IL23-p19 ELISA, THP1-IFNy, LPS, 10 pt EC50
Description: LPS Induced IL23p19 in THP-1 Cells (with IFNγ Primed) Assay
THP-1 Cells (ATCC, Cat # TIB-202), Dimethyl Sulfoxide (DMSO) (Sigma-Aldrich, Cat # D2650), RPMI 1640 (Cellgro, Cat #10-040-CM), Fetal Bovine Serum (Sigma, Cat # F4135), Albumin From Bovine Serum (BSA) (Sigma-Aldrich, Cat # A7906), LPS (Serotype K-235, Sigma, Product Number L 2143), IFNγ (Peprotech, Cat #300-02)
Capture antibody: Human IL-23p19 ELISA (e-Bioscience, Cat. #14-7238-85),
Detection antibody: Primary Mouse Biotinylated anti-human IL-12(p40/p70) (e-Bioscience, Cat. #13-7129-85), Secondary HRP-conjugated Streptavidin (R&D Systems, Cat # DY998), 1×PBST Washing Buffer (PBS-Tween tablet) (VWR International, Cat #80058-558), ELISA Blocking Buffer (PBS with 1% BSA), ELISA Dilution Buffer (PBS with 1% BSA), 384 Well Flat-Bottom, MaxiSorp Black Immuno Plates (Thermo Scientific, Cat #12-565-346), 384 Well Flat-Bottom, White Tissue Culture Plates (Thermo Scientific, Cat #12-565-343), Super Signal ELISA Pico Chemiluminescent Substrate (Thermo Scientific, Cat #37070), Cell Titer Glo reagent (Promega, Cat # G7573), Positive control, IKK2VI inhibitor (Calbiochem, Cat #401483), AquaMax 4000 plate washer (Molecular Devices), Luminometer, Wallac Victor2 1420 Multilabel Counter. Method THP-1 Cells Stimulation:
On day 1, 50K/well THP-1 cells were seeded and primed with IFNγ (50 ng/mL) in 384-well plates for about 18 hours in RPMI media with 10% FBS. On day 2, the compound was serially diluted in DMSO from 5 mM in 3-fold dilutions, and then diluted 1:125 in RPMI media with 10% FBS. 50 μL/well 2× compound was added to 50 μL/well THP-1 cells (with IFNγ primed) in duplicate in 384 well tissue culture plates. The cells were pre-incubated with compound for 1 hour at 37° C., 5% CO2 before addition of 10 μL/well 11×LPS to give a final concentration of 1 ug/mL LPS. Day 3, after stimulation for 18 hours at 37° C., 5% CO2, the assay plate was centrifuged and 70 μL/well supernatant was harvested. IL-23p19 protein in 70 μL/well of supernatant was measured by sandwich ELISA, and 25 μl/well Cell Titer Glo reagent was added to the remaining cells to measure compound toxicity.
Human IL-23p19 Sandwich ELISA:
Maxisorp immuno ELISA plates were pre-coated with 25 μL/well of anti-IL-23p19 capture antibody (2.5 ug/mL) in PBS overnight at room temperature. After washing with 1×PBST, the plates were blocked using 100 μL/well of 1% BSA in PBS for 2 hours at room temperature. The plates were washed three times with 1×PBST and 70 μL/well supernatant were added. The plates were incubated at room temperature for 2 hours with shaking and washed three times with 1×PBST. 25 μL/well of biotin labeled anti-IL-12(p40/p70) detection antibody (100 ng/mL) in PBS with 1% BSA was added and the plates were incubated at room temperature for 2 hours with shaking. After washing three times with 1×PBST, 25 μL/well of streptavidin-HRP (1:200) in PBS with 1% BSA was added and the plates were incubated at room temperature for 20 minutes with shaking. The plates were washed three times with 1×PBST and 25 μL/well of Super Signal ELISA Pico Chemiluminescent Substrate were added. The plates were read with a luminometer, and the chemiluminescence values were entered into Athena (Rigel) for curve fitting, EC50 calculation, and database storage.

SMILES | EC50 (IL23-p19) [nM] | EC50 (IL23p19) [nM]
O=C(Nc1cc2oc(N3CCOCC3)nc2cc1N1CCCC(F)(F)C1)c1ccc(-c2cn[nH]c2)o1 [Compound I-42, N-(5-(3,3-difluoropiperidin-1-yl)-2-morpholinobenzo[d]oxazol-6-yl)-5-(1H-pyrazol-4-yl)furan-2-carboxamide] | 84.8 | 60.6
O=C(Nc1cc2oc(N3CCOCC3)nc2cc1N1CCCC(F)C1)c1ccc(-c2cn[nH]c2)o1 (centres unmarked) [Compound I-38, N-(5-(3-fluoropiperidin-1-yl)-2-morpholinobenzo[d]oxazol-6-yl)-5-(1H-pyrazol-4-yl)furan-2-carboxamide] | 14.1 | 31.6
Cc1cc(-c2nc(C(=O)Nc3cc4oc(N5CCOCC5)nc4cc3N3CCCC(F)C3)cs2)ccn1 (centres unmarked) [Compound I-41, N-(5-(3-fluoropiperidin-1-yl)-2-morpholinobenzo[d]oxazol-6-yl)-2-(2-methylpyridin-4-yl)thiazole-4-carboxamide] | 2580 | 147
O=C(Nc1cc2oc(N3CCCCC3)nc2cc1N1CCCCC1)c1ccc(-c2cn[nH]c2)o1 [Compound I-31, N-(2,5-di(piperidin-1-yl)benzo[d]oxazol-6-yl)-5-(1H-pyrazol-4-yl)furan-2-carboxamide] | 444 | 144
O=C(Nc1cc2oc(N3CCOCC3)nc2cc1N1CCCCC1)c1ccc(-c2cc[nH]n2)o1 [Compound I-4, N-(2-morpholino-5-(piperidin-1-yl)benzo[d]oxazol-6-yl)-5-(1H-pyrazol-3-yl)furan-2-carboxamide] | 12100 | 901
COCCN(C)c1nc2cc(N3CCCCC3)c(NC(=O)c3ccc(-c4cn[nH]c4)o3)cc2o1 [Compound I-50, N-(2-((2-methoxyethyl)(methyl)amino)-5-(piperidin-1-yl)benzo[d]oxazol-6-yl)-5-(1H-pyrazol-4-yl)furan-2-carboxamide] | 75.7 | 133
Cc1cc(-c2ccc(C(=O)Nc3cc4oc(N5CCOCC5)nc4cc3N3CCCC(F)(F)C3)o2)ccn1 [Compound I-43, N-(5-(3,3-difluoropiperidin-1-yl)-2-morpholinobenzo[d]oxazol-6-yl)-5-(2-methylpyridin-4-yl)furan-2-carboxamide] | 2620 | 344
O=C(Nc1cc2oc(N3CCCCC3)nc2cc1N1CCCCC1)c1ccc(-c2cc[nH]n2)o1 [Compound I-32, N-(2,5-di(piperidin-1-yl)benzo[d]oxazol-6-yl)-5-(1H-pyrazol-3-yl)furan-2-carboxamide] | 24100 | 1780
CN1CCN(c2nc3cc(N4CCCCC4)c(NC(=O)c4ccc(-c5cc[nH]n5)o4)cc3o2)CC1 [Compound I-17, N-(2-(4-methylpiperazin-1-yl)-5-(piperidin-1-yl)benzo[d]oxazol-6-yl)-5-(1H-pyrazol-3-yl)furan-2-carboxamide] | 1020 | 1230
Cc1cc(-c2ccc(C(=O)Nc3cc4oc(N5CCN(C)CC5)nc4cc3N3CCCCC3)o2)ccn1 [Compound I-18, N-(2-(4-methylpiperazin-1-yl)-5-(piperidin-1-yl)benzo[d]oxazol-6-yl)-5-(2-methylpyridin-4-yl)furan-2-carboxamide] | 889 | 7510

More lines, now with the values ahead:

EC50 (IL23-p19) [nM] | EC50 (IL23p19) [nM] | SMILES
18 | 22.4 | CN1CCN(c2nc3cc(N4CCCCC4)c(NC(=O)c4csc(-c5cn[nH]c5)n4)cc3o2)CC1 [Compound I-20, N-(2-(4-methylpiperazin-1-yl)-5-(piperidin-1-yl)benzo[d]oxazol-6-yl)-2-(1H-pyrazol-4-yl)thiazole-4-carboxamide]
41 | 25 | O=C(Nc1cc2oc(N3CCOCC3)nc2cc1N1CCCC(F)C1)c1csc(-c2cn[nH]c2)n1 (centres unmarked) [Compound I-40, N-(5-(3-fluoropiperidin-1-yl)-2-morpholinobenzo[d]oxazol-6-yl)-2-(1H-pyrazol-4-yl)thiazole-4-carboxamide]
106 | 302 | O=C(Nc1cc2oc(N3CCOCC3)nc2cc1N1CCC(F)(F)CC1)c1csc(-c2cn[nH]c2)n1 [Compound I-29, N-(5-(4,4-difluoropiperidin-1-yl)-2-morpholinobenzo[d]oxazol-6-yl)-2-(1H-pyrazol-4-yl)thiazole-4-carboxamide]
17900 | 10200 | Cc1cc(-c2nc(C(=O)Nc3cc4oc(N5CCOCC5)nc4cc3N3CCCCC3)cs2)ccn1 [Compound I-14, 2-(2-methylpyridin-4-yl)-N-(2-morpholino-5-(piperidin-1-yl)benzo[d]oxazol-6-yl)thiazole-4-carboxamide]
41.1 | 74.2 | COCCN(C)c1nc2cc(N3CCCCC3)c(NC(=O)c3csc(-c4cn[nH]c4)n3)cc2o1 [Compound I-51, N-(2-((2-methoxyethyl)(methyl)amino)-5-(piperidin-1-yl)benzo[d]oxazol-6-yl)-2-(1H-pyrazol-4-yl)thiazole-4-carboxamide]
58 | 21.3 | O=C(Nc1cc2oc(N3CCOCC3)nc2cc1N1CCCC1)c1csc(-c2cn[nH]c2)n1 [Compound I-47, N-(2-morpholino-5-(pyrrolidin-1-yl)benzo[d]oxazol-6-yl)-2-(1H-pyrazol-4-yl)thiazole-4-carboxamide]
